According to patent US20040122083A1, “Antitubulin assembly and cell growth inhibitor denominated "dioxostatin"” (priority 2003, published 2004):
Converted amounts (≈) assume the structure as drawn. Where two headings read alike, the source gives them in different places. Blank lines part the entries; values can stand above or below the compound they belong to.

Columns and labels:
BXPC-3 = assay: Human cancer cell line growth inhibition, Pancreas-a BXPC-3; format: cell-based; details: for GI50: Homo sapiens
NCI-H460 = assay: Human cancer cell line growth inhibition, Lung-NSC NCI-H460; format: cell-based; details: for GI50: Homo sapiens
DU-145 = assay: Human cancer cell line growth inhibition, Prostate DU-145; format: cell-based; details: for GI50: Homo sapiens
OVCAR-3 = assay: Human cancer cell line growth inhibition, Ovarian OVCAR-3; format: cell-based; details: for GI50: Homo sapiens
SF-295 = assay: Human cancer cell line growth inhibition, CNS SF-295; format: cell-based; details: for GI50: Homo sapiens
KM20L2 = assay: Human cancer cell line growth inhibition, Colon KM20L2; format: cell-based; details: for GI50: Homo sapiens, KM-20L2
tubulin [1] = target: T1, tubulin (Bos taurus, UniProt P81947+Q6B856); assay: Inhibition of tubulin polymerization (assembly); format: biochemical
Experimental: (§1) Tubulin assays. The tubulin polymerizion and colchicine binding experiments were performed as described previously (See: Verdier-Pinard, P.; Lai, J -Y.; Yoo, H -D.; Yu, J.; Marquez, B.; Nagle, D. G.; Nambu, M.; White, J. D.; Falck, J. R; Gerwick, W. H.; Day, B. W.; Hamel, E. Mol. Pharmacol. 1998, 53, 62-76). However, in the polymerization assays Beckman DU7400/7500 spectrophotometers equipped with “high performance” temperature controllers were used. […] Temperature changes were, however, more rapid, with the jump from the lower temperature to 30EC taking about 20 sec and the reverse jump about 100 sec.

tubulin [2] = target: T1, tubulin; assay: Inhibition of [3H]colchicine binding to tubulin
Experimental: as §1

solid tumors = details: cited from earlier work
SK-N-SH = assay: Human cancer cell line growth inhibition, Neuroblast SK-N-SH; format: cell-based; details: for GI50: Homo sapiens
SW1736 = assay: Human cancer cell line growth inhibition, Thyroid ca SW1736; format: cell-based; details: for GI50: Homo sapiens, SW-1736
FADU = assay: Human cancer cell line growth inhibition, Pharynx-sq FADU; format: cell-based; details: for GI50: Homo sapiens, FaDu
A498 = assay: Human cancer cell line growth inhibition, Renal A498; format: cell-based; details: for GI50: Homo sapiens
Streptococcus pneumoniae = assay: Disk susceptibility testing; format: cell-based
Description: (§2) Antimicrobial susceptibility testing. […] Eur. J. Med. Chem. 1998, 33, 71-77).

Neisseria gonorrhoeae = assay: Disk susceptibility testing; format: cell-based
Description: as §2

Staphylococcus aureus = assay: Disk susceptibility testing; format: cell-based
Description: as §2

colchicine binding = details: at equal concentrations; cited from earlier work
Aqueous solubility = format: physicochemical
[3] = test system: the ten bacteria and fungi tested; assay: Disk susceptibility testing, whole panel; format: cell-based; details: at 100 μg/disk
Description: as §2

cancer cell growth = details: cited from earlier work; for activity as cancer cell growth inhibitors: initial finding
Candida albicans = test system: Candida albicans
Description: as §2

Cryptococcus neoformans = test system: Cryptococcus neoformans
Description: as §2

[4] = test system: Stenotrophomonas maltophilia
Description: as §2

[5] = Table IV and text, read-out: Inhibition of Tubulin Assembly IC50 ± SD
[6] = Table II, tubulin concentration 10 μM, read-out: Inhibition of tubulin Polymerization IC50 ± SD
[7] = read-out: % Inhibition Colchicine binding ± SD

T1 sequence (Q6B856 whole entry): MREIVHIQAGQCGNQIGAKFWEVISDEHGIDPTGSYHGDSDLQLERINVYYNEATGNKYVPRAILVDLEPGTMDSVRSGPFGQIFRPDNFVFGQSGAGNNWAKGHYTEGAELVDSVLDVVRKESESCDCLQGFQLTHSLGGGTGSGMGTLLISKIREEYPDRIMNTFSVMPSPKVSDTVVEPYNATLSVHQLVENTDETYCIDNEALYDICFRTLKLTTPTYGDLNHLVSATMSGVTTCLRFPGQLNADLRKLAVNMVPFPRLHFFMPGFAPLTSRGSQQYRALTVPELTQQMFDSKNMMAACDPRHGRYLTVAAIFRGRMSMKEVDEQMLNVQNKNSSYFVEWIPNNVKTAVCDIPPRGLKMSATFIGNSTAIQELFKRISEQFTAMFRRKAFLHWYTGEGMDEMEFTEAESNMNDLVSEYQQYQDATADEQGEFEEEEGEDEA
T1 sequence (P81947 whole entry): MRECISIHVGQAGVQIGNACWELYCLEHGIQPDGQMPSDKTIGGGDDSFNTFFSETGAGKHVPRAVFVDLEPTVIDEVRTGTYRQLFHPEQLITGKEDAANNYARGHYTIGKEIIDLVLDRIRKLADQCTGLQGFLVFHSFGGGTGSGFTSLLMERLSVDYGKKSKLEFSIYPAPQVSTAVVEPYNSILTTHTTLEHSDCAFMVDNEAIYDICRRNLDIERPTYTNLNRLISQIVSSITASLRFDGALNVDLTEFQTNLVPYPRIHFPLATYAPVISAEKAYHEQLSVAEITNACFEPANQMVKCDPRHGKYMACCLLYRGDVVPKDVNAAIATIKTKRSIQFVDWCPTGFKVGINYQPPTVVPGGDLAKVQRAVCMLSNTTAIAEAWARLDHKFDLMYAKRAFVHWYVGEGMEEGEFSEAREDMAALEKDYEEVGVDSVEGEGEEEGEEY

Pancreas-a BXPC-3 GI50 (BXPC-3): 5.4 µg/mL
Lung-NSC NCI-H460 GI50 (NCI-H460): >10 µg/mL
Prostate DU-145 GI50 (DU-145): 3.0 µg/mL
Ovarian OVCAR-3 GI50 (OVCAR-3): 4.3 µg/mL
CNS SF-295 GI50 (SF-295): 2.9 µg/mL
Colon KM20L2 GI50 (KM20L2): 5.0 µg/mL
IC50 (tubulin [1]; [5]): 0.59 µM
% Inhibition Colchicine binding ± SD (tubulin [2]; 1 μM Inhibitor): 67 ± 6%
% Inhibition Colchicine binding ± SD (tubulin [2]; 5 μM Inhibitor): 91 ± 1%
SMILES: COc1ccc([C@@H]2OCO[C@H]2c2cc(OC)c(OC)c(OC)c2)c(O)c1O [(S,S)-9a, (4S,5S)-4-(2′,3′-dihydroxy-4′-methoxyphenyl)-5-(3″,4″,5″-trimethoxyphenyl)-1,3-dioxolane]

SMILES: COc1ccc(/C=C\c2cc(OC)c(OC)c(OC)c2)cc1OP(=O)([O-])[O-].[Na+].[Na+] [Compound 1d]
vascular shutdown within metastatic tumors (solid tumors; doses one-tenth of the maximum tolerated dose): complete vascular shutdown

SMILES: COc1ccc([C@H](O)[C@@H](O)c2cc(OC)c(OC)c(OC)c2)cc1O [(S,S)-4a]
Pancreas-a BXPC-3 GI50 (BXPC-3): 3.9 µg/mL
Neuroblast SK-N-SH GI50 (SK-N-SH): 0.28 µg/mL
Thyroid ca SW1736 GI50 (SW1736): 1.8 µg/mL
Lung-NSC NCI-H460 GI50 (NCI-H460): 2.5 µg/mL
Pharynx-sq FADU GI50 (FADU): 0.60 µg/mL
Prostate DU-145 GI50 (DU-145): 2.1 µg/mL
Ovarian OVCAR-3 GI50 (OVCAR-3): 0.38 µg/mL
CNS SF-295 GI50 (SF-295): 0.52 µg/mL
Renal A498 GI50 (A498): 0.91 µg/mL
Colon KM20L2 GI50 (KM20L2): 0.52 µg/mL
IC50 (tubulin [1]; [6]): 14 ± 2 µM
Minimum inhibitory Concentration (Streptococcus pneumoniae): 25-50 μg/disk

SMILES: COc1ccc(/C=C\c2cc(OC)c(OC)c(OC)c2)c(O)c1O [Compound 1a, combretastatin A-1, reference compound]
inhibition at 1 µM (tubulin [2]; [7]): 89 ± 3%
inhibition at 5 µM (tubulin [2]; [7]): 99.6%
Minimum inhibitory Concentration (Neisseria gonorrhoeae): 25-50 μg/disk
Minimum inhibitory Concentration (Staphylococcus aureus): 50-100 μg/disk
inhibition of colchicine binding (colchicine binding): ~99%
degree of reduction, vascular shutdown within solid tumors (solid tumors): 50%

SMILES: COc1cc([C@@H]2OCO[C@H]2c2ccc(OC)c(OP(=O)([O-])[O-])c2OP(=O)([O-])[O-])cc(OC)c1OC.[Na+].[Na+].[Na+].[Na+] [(S,S)-21, Tetrasodium-(4S,5S)-4-(2′,3′-O-diphosphonate-4′-methoxyphenyl)-5-(3″,4″,5″-trimethoxyphenyl)-1,3-dioxolane]
GI50 (BXPC-3): > 10 µg/mL
GI50 (NCI-H460): 3.4 µg/mL
GI50 (DU-145): 2.9 µg/mL
GI50 (OVCAR-3): 2.6 µg/mL
GI50 (SF-295): 3.2 µg/mL
GI50 (KM20L2): > 10 µg/mL
solubility (Aqueous solubility): > 35 mg/mL

SMILES: COc1ccc(/C=C\c2cc(OC)c(OC)c(OC)c2)cc1O [Compound 1b, combretastatin A-4]
degree of reduction, vascular shutdown within solid tumors (solid tumors): 70%

SMILES: COc1ccc([C@@H](O)[C@H](O)c2cc(OC)c(OC)c(OC)c2)c(O)c1O [(R,R)-3b, (1R,2R)-1,2-Dihydroxy-1-(2′,3′-dihydroxy-4′-methoxyphenyl)-2-(3″,4″,5″-trimethoxyphenyl)-ethane]
GI50 (BXPC-3): > 10 µg/mL
GI50 (SK-N-SH): 3.1 µg/mL (≈ 8.46 µM)
GI50 (SW1736): > 10 µg/mL
GI50 (NCI-H460): 7.9 µg/mL (≈ 21.6 µM)
GI50 (FADU): 4.9 µg/mL (≈ 13.4 µM)
GI50 (DU-145): > 10 µg/mL
GI50 (OVCAR-3): 7.2 µg/mL (≈ 19.7 µM)
GI50 (SF-295): 2.6 µg/mL (≈ 7.1 µM)
GI50 (A498): > 10 µg/mL
GI50 (KM20L2): 7 µg/mL (≈ 19.1 µM)
Microbe(s) inhibited, whole panel [3]: * (at 100 μg/disk, no inhibition of the ten bacteria and fungi tested)
melting point: 64 to 66 °C

SMILES: COc1ccc([C@H](O)[C@@H](O)c2cc(OC)c(OC)c(OC)c2)c(O)c1O [(S,S)-4b]
GI50 (BXPC-3): > 10 µg/mL
GI50 (SK-N-SH): 3.8 µg/mL (≈ 10.4 µM)
GI50 (SW1736): > 10 µg/mL
GI50 (NCI-H460): > 10 µg/mL
GI50 (FADU): > 10 µg/mL
GI50 (DU-145): > 10 µg/mL
GI50 (OVCAR-3): > 10 µg/mL
GI50 (SF-295): 2.9 µg/mL (≈ 7.92 µM)
GI50 (A498): > 10 µg/mL
GI50 (KM20L2): > 10 µg/mL
Minimum inhibitory Concentration (Neisseria gonorrhoeae): 25-50 μg/disk
melting point: 64 to 66 °C

SMILES: COc1ccc(/C=C/c2cc(OC)c(OC)c(OC)c2)cc1O [Compound 2d]
Microbe(s) inhibited, whole panel [3]: * (at 100 μg/disk, no inhibition of the ten bacteria and fungi tested)
activity as cancer cell growth inhibitor (cancer cell growth; freshly prepared solutions in dimethyl sulfoxide): inactive
activity as cancer cell growth inhibitors (cancer cell growth): moderately active

SMILES: COc1ccc([C@@H](O)[C@H](O)c2cc(OC)c(OC)c(OC)c2)cc1O [(R,R)-3a]
Pancreas-a BXPC-3 GI50 (BXPC-3): >10 µg/mL
Neuroblast SK-N-SH GI50 (SK-N-SH): 1.5 µg/mL
Thyroid ca SW1736 GI50 (SW1736): 6.1 µg/mL
Lung-NSC NCI-H460 GI50 (NCI-H460): 4.4 µg/mL
Pharynx-sq FADU GI50 (FADU): 2.1 µg/mL
Prostate DU-145 GI50 (DU-145): 3.5 µg/mL
Ovarian OVCAR-3 GI50 (OVCAR-3): 4.5 µg/mL
CNS SF-295 GI50 (SF-295): 5.7 µg/mL
Renal A498 GI50 (A498): >10 µg/mL
Colon KM20L2 GI50 (KM20L2): 8.2 µg/mL
IC50 (tubulin [1]; [6]): > 40 µM
Minimum inhibitory Concentration (Streptococcus pneumoniae): 50-100 μg/disk

SMILES: COc1ccc(/C=C/c2cc(OC)c(OC)c(OC)c2)c(O)c1O [Compound 2b, E-combretastatin A-1]
Minimum inhibitory Concentration (Neisseria gonorrhoeae): 6.25-12.5 μg/disk
Minimum inhibitory Concentration (Streptococcus pneumoniae): 50-100 μg/disk
Minimum inhibitory Concentration (Candida albicans): 50-100 μg/disk
Minimum inhibitory Concentration (Cryptococcus neoformans): 50-100 μg/disk
Minimum inhibitory Concentration [4]: 50-100 μg/disk
activity as cancer cell growth inhibitors (cancer cell growth): moderately active

Pancreas-a BXPC-3 GI50 (BXPC-3): >10 µg/mL
Lung-NSC NCI-H460 GI50 (NCI-H460): >10 µg/mL
Prostate DU-145 GI50 (DU-145): >10 µg/mL
Ovarian OVCAR-3 GI50 (OVCAR-3): >10 µg/mL
CNS SF-295 GI50 (SF-295): 5.0 µg/mL
Colon KM20L2 GI50 (KM20L2): >10 µg/mL
IC50 (tubulin [1]; [5]): 5.7 ± 0.8 µM
% Inhibition Colchicine binding ± SD (tubulin [2]; 5 μM Inhibitor): 14 ± 5%
% Inhibition Colchicine binding ± SD (tubulin [2]; 50 μM Inhibitor): 57 ± 0.8%
SMILES: COc1ccc([C@H]2OCO[C@@H]2c2cc(OC)c(OC)c(OC)c2)c(O)c1O [(R,R)-10a, (4R,5R)-4-(2′,3′-Dihydroxy-4′-methoxyphenyl)-5-(3″,4″,5″-trimethoxyphenyl)-1,3-dioxolane]
